{"source": "patent US8349792B2", "about": "“Combination comprising CNDAC (2′-cyano-2′-deoxy-N4-palmitoyl-1-beta-D-arabinofuranosyl-cytosine) and a cytotoxic agent” (priority 2006, dated 2013)", "key": {"H358 cells": {"test_system": "H358 cells", "assay": "H358 xenograft tumour growth", "assay_type": "in vivo, mice (nu/nu)", "details": "for mean tumour volume: day 22, sapacitabine 15 mg/kg oral, irinotecan 50 mg/kg i.p. weekly, SAHA 50 mg/kg oral", "description": "Female mice (nu/nu) were obtained from Harlan. Animals were injected subcutaneously with ˜1×10^7 H358 cells/mouse at a single site on their flanks. Tumours were allowed to grow to ˜127 mm^3 before being pair-matched by tumour size into treatment groups (10 mice/group). One group was treated with sapacitabine (15 mg/kg) once daily by oral gavage for five consecutive days followed by a two day break; the treatment was then repeated for a total of three cycles. Irinotecan (50 mg/kg) was treated once weekly by intraperitoneal injection for three weeks. […] Mice were weighed at least twice a week to assess toxicity of the treatments and the tumours were measured with calipers at least twice a week to determine tumour growth. The tumour measurements were converted into volumes using the formula: tumour volume (mm^3)=width^2 (mm)×length (mm)×0.52. The percent tumour growth inhibition was determined with the formula: 1−(Change in treated tumour volume/change in control tumour volume)×100%. Statistical significance was determined using a two sided unpaired Student's T-test."}, "p388 mouse leukaemia": {"test_system": "p388 mouse leukaemia", "assay": "p388 mouse leukaemia xenograft, survival", "assay_type": "in vivo", "details": "P388 mouse model; CYC682 20 mg/kg PO QD×5×2, SAHA 75 mg/kg IP QD×12; compared to vehicle control", "description": "The p388 mouse leukaemia xenograft assesses drug combinations by the survival times of the mice in the various treatment arms."}, "Hut78 cells [1]": {"test_system": "Hut78 cells", "assay": "Western blotting analysis in Hut78 cells", "assay_type": "cell-based", "details": "1×IC50, western blot", "description": "Protein lysates were generated from 10 cm plates that were seeded at approximately 5×10^5 cells/well, in medium containing 10% FCS. […] Cells were collected by centrifugation (5 min×2,000 g), washed once with ice-cold buffer A (50 mM HEPES, pH 7.0, 20 mM NaCl, 1 mM DTT, protease inhibitors, 10 mM Sodium pyrophosphate, 10 mM Sodium Fluoride and 1 mM Sodium Orthovanadate), and resuspended in 0.3 ml of the same buffer. Cells were lysed by sonication (2×3 s bursts with probe sonicator), and the protein concentration of each tube determined using the BCA assay. Lysates (20-30 μg protein loaded/well) were resolved on Bis-Tris gels containing 10 or 12% acrylamide and transferred to nitrocellulose for analysis by western blotting. Membranes were blocked for 1 h at room temperature in PBS containing 0.02% (v/v) Tween 20 and 5% (w/v) fat-free dried milk. Antibody incubations were carried out overnight at 2-8° C. in PBS containing 0.02% (v/v) Tween 20 (PBST) containing 3% (w/v) dried milk. Nitrocellulose membranes were probed with the following antibodies:\nMembranes were then washed three times in PBST, and then incubated for 1 h with the appropriate horseradish peroxidase-conjugated secondary antibody (Perbio) at 1:5,000 dilution. Finally, the membranes were washed three times in PBST prior to development using an enhanced chemiluminescence kit (Amersham Corporation, Buckinghamshire, U.K.) or the Millipore Immobilon HRP substrate.\nCells were harvested and the resulting cell lysates analysed by western blotting with the indicated antibodies. Data are representative of two independent experiments (FIG. 5). […] Homologous recombination is one of the major repair pathways for double strand DNA breaks, and RAD51 plays a key role in homologous recombination."}, "Hut78 cells [2]": {"test_system": "Hut78 cells", "assay": "Flow cytometry, propidium iodide DNA content (sub-G1)", "assay_type": "cell-based", "details": "for sub-G1 cells, dose dependence: 0.5×-2×IC50, 72 h; for sub-G1 cells, time dependence: 1×IC50, 16, 24, 48 or 72 h", "description": "(§1) Hut78 cells were seeded in 10 cm plates at approximately 5×10^5 cells/plate and left to settle for 2 h. […] After treatment, cells were harvested and cell cycle analysis was carried our. Cells were pelleted by centrifugation, washed twice in PBS and then fixed overnight in 70% (v/v) ethanol at −20° C. Cells were stained with 50 μg/ml propidium iodide for 20 min and the DNA content analysed on the flow cytometer. Annexin V staining was performed as indicated in manufacturer's instructions, on live, non-fixed cells.\nAfter drug treatment, cells were then harvested, stained with propidium iodide and their DNA content analysed by flow cytometry.\nAfter treatment, cells were then harvested, stained with propidium iodide and their DNA content analysed by flow cytometry."}, "Hut78 cells [3]": {"test_system": "Hut78 cells", "assay": "Flow cytometry, Annexin V staining", "assay_type": "cell-based", "details": "IC50, 24 h, 48 h or 72 h", "description": "as §1\nCells were then harvested, stained with annexin V and analysed on the flow cytometer. Data are representative of two independent experiments. Annexin V labels live cells that are undergoing apoptosis or already dead. […] The synergy detected in the calcusyn analysis (Table 1) is therefore likely to be mainly due to inhibition of cell proliferation."}, "Hut78 cells [4]": {"test_system": "Hut78 cells", "assay": "72 h IC50 by Alamar blue assay in Hut78", "assay_type": "cell-based", "details": "read-out: 1×IC50 value in Hut78 cells", "description": "Experiments were carried out in 96-well plates and the cell lines seeded at a density of 2500/well for H1299, 2500/well or 3000/well for H460, 5000/well for HL-60 cells, and 8,000 cells/well for Hut78, MV4-11 and PL-21 cells. […] Each compound was then tested in combination with CNDAC using three different treatment regimes: concomitant, CNDAC pre-treatment followed by HDAC inhibitor/topoisomerase inhibitor and CNDAC treatment after pre-treatment with HDAC inhibitor/topoisomerase inhibitor."}, "colon cancer": {"test_system": "colon cancer", "details": "model of colon cancer, cited from earlier work"}, "[5]": {"details": "human, in vivo; cited from earlier work"}}, "note": "pIC50: −log10 of the molar value.", "data": [{"smiles": "CCc1c2c(nc3ccc(OC(=O)N4CCC(N5CCCCC5)CC4)cc13)-c1cc3c(c(=O)n1C2)COC(=O)[C@]3(O)CC", "note": "[irinotecan]", "values": [{"measurement": "tumour growth inhibition (% TGI)", "setting": "H358 cells; day 22", "result": "~75", "unit": "%"}]}, {"smiles": "O=C(CCCCCCC(=O)Nc1ccccc1)NO", "note": "[SAHA, suberoylanilide hydramic acid, reference compound]", "values": [{"measurement": "effect on tumour growth (in words)", "setting": "H358 cells; day 22", "result": "no effect on tumour growth"}, {"measurement": "mean tumour volume", "setting": "H358 cells", "result": 517, "unit": "mm^3"}, {"measurement": "survival", "setting": "p388 mouse leukaemia", "result": "very little effect on survival"}, {"measurement": "Acetyl-histone H4", "setting": "Hut78 cells [1]", "result": "increase in Acetyl-histone H4"}, {"measurement": "sub-G1 cells, dose dependence", "setting": "Hut78 cells [2]", "result": "little effect on the cell cycle, except at 2×IC50, where it induced a small increase in sub-G1 cells"}, {"measurement": "sub-G1 cells, time dependence", "setting": "Hut78 cells [2]", "result": "small increase in sub-G1 cells"}, {"measurement": "apoptotic/dead cells (annexin V)", "setting": "Hut78 cells [3]", "result": "negligible increase in dead/dying cells"}]}, {"smiles": "N#C[C@H]1[C@H](O)[C@@H](CO)O[C@H]1n1ccc(N)nc1=O", "note": "[CNDAC, 1-(2-C-cyano-2-deoxy-β-D-arabino-pentafuranosyl)-cytosine]", "values": [{"measurement": "pIC50", "setting": "Hut78 cells [4]", "result": 6.44}, {"measurement": "H2A.X phosphorylation at serine 139", "setting": "Hut78 cells [1]", "result": "increase in H2A.X phosphorylation at serine 139"}, {"measurement": "Mcl-1", "setting": "Hut78 cells [1]", "result": "decrease in Mcl-1"}, {"measurement": "sub-G1 cells, dose dependence", "setting": "Hut78 cells [2]", "result": "dose-dependent increase in sub-G1 cells"}, {"measurement": "sub-G1 cells, time dependence", "setting": "Hut78 cells [2]", "result": "time-dependent increase in sub-G1 cells that became apparent by 48 h treatment"}, {"measurement": "sub-G1 cells, share of the cell population", "setting": "Hut78 cells [2]; 1×IC50, by 72 h", "result": "~30", "unit": "%"}, {"measurement": "apoptotic/dead cells (annexin V)", "setting": "Hut78 cells [3]", "result": "time-dependent increase in apoptotic/dead cells"}]}, {"smiles": "CCCCCCCCCCCCCCCC(=O)Nc1ccn([C@@H]2O[C@H](CO)[C@@H](O)[C@@H]2C#N)c(=O)n1", "note": "[sapacitabine, 2′-cyano-2′-deoxy-N^4-palmitoyl-1-β-D-arabinofuranosylcytosine]", "values": [{"measurement": "tumour growth inhibition (% TGI)", "setting": "H358 cells; day 22", "result": "~75", "unit": "%"}, {"measurement": "mean tumour volume", "setting": "H358 cells", "result": 229, "unit": "mm^3"}, {"measurement": "survival", "setting": "p388 mouse leukaemia", "result": "significant increase in the survival time"}, {"measurement": "anticancer activity", "setting": "colon cancer", "result": "strong anticancer activity"}, {"measurement": "increasing survival and preventing the spread of colon cancer metastases to the liver", "setting": "colon cancer; versus gemcitabine or 5-FU", "result": "superior to either gemcitabine or 5-FU"}, {"measurement": "tolerability, dose limiting toxicity", "setting": "[5]", "result": "well tolerated in humans, with myelosuppression as the dose limiting toxicity"}]}]}
